Read-outs that look alike come from different tables or passages of the source.

Some targets named below: AAK1 (Homo sapiens, UniProt Q2M2I8); PIK3C2B (Homo sapiens, UniProt O00750); DAPK3 (Homo sapiens, UniProt O43293); EGFR(L858R,T790M) (Homo sapiens, UniProt P00533, L858R/T790M); PIK3CA(H1047L) (Homo sapiens, UniProt P42336, H1047L); CSF1R-autoinhibited (Homo sapiens, UniProt P07333); PIK3CA(E542K) (Homo sapiens, UniProt P42336, E542K).
Holding throughout (assay): biochemical
Parameters in all cases: DiscoveRx KINOMEscan active site-directed competition binding; percent of control kinase bound to immobilised ligand

Test [1] deals with T1, RSK4(Kin.Dom.2-C-terminal) (Homo sapiens, UniProt Q9UK32).
T1 construct: gene RPS6KA6; Kin.Dom.2-C-terminal

Another test has as its target T2, PRP4 (Homo sapiens, UniProt Q13523).
T2 construct: gene PRPF4B

For another test, the target named is T3, DCAMKL3 (Homo sapiens, UniProt Q9C098).
T3 construct: gene DCLK3
T3 sequence (Q9C098 1-648): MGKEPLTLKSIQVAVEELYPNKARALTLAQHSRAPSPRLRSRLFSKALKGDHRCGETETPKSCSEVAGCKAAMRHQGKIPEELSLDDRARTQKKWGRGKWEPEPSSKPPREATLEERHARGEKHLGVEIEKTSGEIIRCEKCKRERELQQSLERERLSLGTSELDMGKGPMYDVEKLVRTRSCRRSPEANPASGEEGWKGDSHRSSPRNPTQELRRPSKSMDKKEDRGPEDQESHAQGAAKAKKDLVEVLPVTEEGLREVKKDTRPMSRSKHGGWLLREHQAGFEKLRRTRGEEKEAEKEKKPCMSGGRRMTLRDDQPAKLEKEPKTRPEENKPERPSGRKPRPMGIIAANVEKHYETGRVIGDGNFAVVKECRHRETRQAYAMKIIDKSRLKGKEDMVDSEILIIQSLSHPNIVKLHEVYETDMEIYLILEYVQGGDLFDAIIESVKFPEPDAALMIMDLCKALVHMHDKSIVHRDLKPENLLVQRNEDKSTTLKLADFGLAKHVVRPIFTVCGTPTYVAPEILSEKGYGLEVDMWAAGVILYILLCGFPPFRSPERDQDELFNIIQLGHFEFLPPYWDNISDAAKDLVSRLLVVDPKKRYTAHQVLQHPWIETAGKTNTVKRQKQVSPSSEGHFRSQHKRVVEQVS

The next test concerns the target T4, PRKG1 (Homo sapiens, UniProt Q13976).
T4 sequence (Q13976 1-671): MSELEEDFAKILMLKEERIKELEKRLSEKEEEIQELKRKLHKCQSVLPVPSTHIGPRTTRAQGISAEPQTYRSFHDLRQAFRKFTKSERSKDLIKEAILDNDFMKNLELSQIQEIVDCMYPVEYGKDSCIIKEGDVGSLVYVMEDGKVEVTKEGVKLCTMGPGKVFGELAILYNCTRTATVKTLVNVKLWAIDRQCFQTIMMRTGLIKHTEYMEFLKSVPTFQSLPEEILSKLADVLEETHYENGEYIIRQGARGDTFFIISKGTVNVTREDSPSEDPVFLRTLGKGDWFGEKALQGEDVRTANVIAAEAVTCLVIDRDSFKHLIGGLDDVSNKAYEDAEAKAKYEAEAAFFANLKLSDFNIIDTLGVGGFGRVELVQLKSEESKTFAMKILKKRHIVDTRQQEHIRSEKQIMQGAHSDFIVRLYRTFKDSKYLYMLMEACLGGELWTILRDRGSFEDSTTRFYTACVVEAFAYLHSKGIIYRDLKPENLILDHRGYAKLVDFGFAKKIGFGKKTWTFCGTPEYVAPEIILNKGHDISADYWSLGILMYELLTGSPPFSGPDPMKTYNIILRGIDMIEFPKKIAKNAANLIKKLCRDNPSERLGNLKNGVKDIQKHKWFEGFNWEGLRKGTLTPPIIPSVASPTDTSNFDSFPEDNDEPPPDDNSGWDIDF

In the next test the target is T5, NDR2 (Homo sapiens, UniProt Q9Y2H1).
T5 construct: gene STK38L

[2] abbreviates: read-out: Rucaparib / %Ctrl @ 10000nM, binding competition, % of control.
Setting [3] is: read-out: Talazoparib (BMN 673) / %Ctrl @ 10000nM.
Setting [4] is: read-out: Niraparib (MK-4827) / %Ctrl @ 10000nM.
[5] abbreviates: read-out: Olaparib / %Ctrl @ 10000nM.

Sequence of CSF1R-autoinhibited (P07333 whole entry): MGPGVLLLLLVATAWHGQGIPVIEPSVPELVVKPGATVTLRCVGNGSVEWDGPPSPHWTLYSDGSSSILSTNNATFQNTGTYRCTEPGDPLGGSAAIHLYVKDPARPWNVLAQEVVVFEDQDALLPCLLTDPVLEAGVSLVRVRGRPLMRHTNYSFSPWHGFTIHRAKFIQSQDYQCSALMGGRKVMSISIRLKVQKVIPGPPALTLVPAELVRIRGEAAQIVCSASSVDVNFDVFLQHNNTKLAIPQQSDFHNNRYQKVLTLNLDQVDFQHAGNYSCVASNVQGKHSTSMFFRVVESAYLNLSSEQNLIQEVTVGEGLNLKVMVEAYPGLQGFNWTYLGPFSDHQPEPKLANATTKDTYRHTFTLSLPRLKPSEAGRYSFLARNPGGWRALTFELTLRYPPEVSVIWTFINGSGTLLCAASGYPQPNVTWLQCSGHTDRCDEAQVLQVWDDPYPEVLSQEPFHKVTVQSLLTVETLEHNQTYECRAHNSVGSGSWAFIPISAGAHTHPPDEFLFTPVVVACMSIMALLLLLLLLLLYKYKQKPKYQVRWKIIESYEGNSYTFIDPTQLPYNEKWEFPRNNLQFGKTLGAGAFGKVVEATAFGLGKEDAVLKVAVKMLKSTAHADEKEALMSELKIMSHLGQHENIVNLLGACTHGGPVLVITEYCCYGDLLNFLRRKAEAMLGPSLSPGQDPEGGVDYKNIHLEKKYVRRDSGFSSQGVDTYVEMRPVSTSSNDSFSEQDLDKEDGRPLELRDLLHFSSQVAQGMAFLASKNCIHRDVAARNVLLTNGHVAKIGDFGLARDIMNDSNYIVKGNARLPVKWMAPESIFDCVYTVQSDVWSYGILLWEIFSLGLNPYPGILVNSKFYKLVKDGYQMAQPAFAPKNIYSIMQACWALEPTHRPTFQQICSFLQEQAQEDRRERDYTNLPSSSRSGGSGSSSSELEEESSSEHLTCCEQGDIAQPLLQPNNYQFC
Sequence of AAK1 (Q2M2I8 whole entry): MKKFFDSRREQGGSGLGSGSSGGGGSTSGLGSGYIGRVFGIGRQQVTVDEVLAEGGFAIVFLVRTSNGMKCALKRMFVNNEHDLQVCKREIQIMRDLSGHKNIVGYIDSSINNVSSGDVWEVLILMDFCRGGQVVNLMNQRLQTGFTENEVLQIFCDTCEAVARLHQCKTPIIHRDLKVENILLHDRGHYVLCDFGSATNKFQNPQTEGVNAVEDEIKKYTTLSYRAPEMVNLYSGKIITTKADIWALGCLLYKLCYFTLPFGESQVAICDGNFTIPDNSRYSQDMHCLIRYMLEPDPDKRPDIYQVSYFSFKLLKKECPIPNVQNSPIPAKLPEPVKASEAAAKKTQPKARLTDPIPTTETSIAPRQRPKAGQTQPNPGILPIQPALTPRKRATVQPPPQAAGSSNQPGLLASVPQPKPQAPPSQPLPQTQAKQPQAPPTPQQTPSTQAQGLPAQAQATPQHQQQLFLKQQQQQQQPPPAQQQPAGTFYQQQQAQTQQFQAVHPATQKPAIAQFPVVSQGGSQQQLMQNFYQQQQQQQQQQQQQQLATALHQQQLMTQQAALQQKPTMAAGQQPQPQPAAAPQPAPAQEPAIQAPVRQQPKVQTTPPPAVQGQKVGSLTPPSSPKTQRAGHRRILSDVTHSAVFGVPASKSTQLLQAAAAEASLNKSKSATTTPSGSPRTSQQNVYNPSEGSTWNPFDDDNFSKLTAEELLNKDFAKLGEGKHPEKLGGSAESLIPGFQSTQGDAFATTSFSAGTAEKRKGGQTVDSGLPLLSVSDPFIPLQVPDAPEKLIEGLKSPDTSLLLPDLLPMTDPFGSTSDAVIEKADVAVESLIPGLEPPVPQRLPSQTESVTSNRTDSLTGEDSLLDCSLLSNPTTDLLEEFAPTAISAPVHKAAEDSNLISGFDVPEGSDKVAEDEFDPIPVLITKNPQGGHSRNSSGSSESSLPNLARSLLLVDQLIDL
T1 sequence (Q9UK32 whole entry): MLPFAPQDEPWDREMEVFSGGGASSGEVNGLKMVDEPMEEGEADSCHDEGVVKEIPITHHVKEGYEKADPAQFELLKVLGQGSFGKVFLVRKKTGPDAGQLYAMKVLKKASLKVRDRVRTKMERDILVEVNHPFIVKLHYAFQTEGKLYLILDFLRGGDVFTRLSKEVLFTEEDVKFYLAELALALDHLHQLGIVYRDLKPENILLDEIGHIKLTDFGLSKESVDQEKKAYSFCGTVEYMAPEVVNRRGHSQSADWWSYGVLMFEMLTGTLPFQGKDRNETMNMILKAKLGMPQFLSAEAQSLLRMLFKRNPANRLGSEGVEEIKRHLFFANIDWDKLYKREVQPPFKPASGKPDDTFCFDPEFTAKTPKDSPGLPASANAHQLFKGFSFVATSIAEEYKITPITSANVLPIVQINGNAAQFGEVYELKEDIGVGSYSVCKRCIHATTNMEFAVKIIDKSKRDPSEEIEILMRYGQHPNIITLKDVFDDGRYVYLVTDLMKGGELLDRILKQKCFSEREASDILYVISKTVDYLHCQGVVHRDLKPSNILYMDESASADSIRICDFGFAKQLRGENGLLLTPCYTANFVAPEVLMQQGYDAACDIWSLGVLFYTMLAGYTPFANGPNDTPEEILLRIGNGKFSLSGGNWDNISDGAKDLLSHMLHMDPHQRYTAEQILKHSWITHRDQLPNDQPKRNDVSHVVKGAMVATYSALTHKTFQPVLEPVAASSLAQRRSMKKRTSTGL
Sequence of PIK3CA(E542K) (P42336 whole entry E542K): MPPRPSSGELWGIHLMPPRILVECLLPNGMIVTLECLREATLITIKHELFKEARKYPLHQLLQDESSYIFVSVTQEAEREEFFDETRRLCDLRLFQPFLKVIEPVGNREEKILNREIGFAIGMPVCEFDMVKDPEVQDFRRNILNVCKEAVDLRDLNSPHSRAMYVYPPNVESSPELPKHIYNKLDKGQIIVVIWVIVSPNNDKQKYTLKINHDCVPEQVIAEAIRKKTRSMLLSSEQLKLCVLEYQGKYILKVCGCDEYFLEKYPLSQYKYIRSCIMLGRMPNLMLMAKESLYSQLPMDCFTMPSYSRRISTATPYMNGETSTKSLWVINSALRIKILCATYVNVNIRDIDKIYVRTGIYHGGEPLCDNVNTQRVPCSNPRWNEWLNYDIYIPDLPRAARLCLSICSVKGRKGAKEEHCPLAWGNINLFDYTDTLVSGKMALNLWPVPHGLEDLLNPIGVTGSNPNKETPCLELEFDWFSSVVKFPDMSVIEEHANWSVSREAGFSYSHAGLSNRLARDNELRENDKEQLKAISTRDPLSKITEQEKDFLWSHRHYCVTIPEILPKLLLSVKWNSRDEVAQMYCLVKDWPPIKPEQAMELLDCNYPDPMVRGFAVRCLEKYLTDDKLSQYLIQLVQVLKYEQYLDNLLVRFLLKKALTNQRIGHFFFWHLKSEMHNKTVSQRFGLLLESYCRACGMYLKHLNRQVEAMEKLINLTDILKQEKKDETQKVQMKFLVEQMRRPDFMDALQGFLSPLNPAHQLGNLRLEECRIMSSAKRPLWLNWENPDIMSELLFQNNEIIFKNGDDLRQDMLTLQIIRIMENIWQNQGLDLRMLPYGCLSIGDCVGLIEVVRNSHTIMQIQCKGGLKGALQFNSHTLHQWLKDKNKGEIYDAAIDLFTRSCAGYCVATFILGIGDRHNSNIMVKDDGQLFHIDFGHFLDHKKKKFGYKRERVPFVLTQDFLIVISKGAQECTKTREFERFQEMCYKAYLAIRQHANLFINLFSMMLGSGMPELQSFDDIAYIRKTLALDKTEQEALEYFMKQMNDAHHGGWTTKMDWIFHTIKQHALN
Sequence of PIK3CA(H1047L) (P42336 whole entry H1047L): as the sequence (P42336 whole entry E542K) above, with K542E, H1047L counted along it
T5 sequence (Q9Y2H1 whole entry): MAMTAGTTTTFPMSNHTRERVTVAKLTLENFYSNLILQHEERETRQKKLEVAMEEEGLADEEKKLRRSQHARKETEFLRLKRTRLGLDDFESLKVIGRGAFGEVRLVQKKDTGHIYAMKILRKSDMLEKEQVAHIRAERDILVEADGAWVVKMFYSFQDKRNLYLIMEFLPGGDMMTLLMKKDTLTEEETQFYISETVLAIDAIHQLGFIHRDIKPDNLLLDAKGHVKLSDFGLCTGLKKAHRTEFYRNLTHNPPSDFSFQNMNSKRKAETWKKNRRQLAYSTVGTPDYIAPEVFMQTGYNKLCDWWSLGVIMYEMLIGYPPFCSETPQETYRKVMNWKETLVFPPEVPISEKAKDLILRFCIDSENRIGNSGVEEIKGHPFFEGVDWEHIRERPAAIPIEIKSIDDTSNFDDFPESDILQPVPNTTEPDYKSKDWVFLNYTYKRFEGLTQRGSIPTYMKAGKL
Sequence of DAPK3 (O43293 whole entry): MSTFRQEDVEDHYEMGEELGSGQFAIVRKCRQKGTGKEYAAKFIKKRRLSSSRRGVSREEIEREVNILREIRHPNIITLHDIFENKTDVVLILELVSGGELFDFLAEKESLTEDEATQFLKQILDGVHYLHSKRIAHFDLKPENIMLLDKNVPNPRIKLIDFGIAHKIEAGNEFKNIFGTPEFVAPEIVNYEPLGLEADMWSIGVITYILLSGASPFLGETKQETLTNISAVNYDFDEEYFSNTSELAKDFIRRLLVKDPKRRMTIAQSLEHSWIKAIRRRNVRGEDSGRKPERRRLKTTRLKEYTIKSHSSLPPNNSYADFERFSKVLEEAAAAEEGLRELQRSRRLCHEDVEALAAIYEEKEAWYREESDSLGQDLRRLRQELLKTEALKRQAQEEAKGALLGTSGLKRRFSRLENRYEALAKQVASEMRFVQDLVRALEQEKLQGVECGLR

As for `CNCc1ccc(-c2[nH]c3cc(F)cc4c3c2CCNC4=O)cc1` [Rucaparib], the percent of control binding at 10 µM on AAK1 (setting [2]) is 82%; at PIK3C2B (setting [2]), 98%; in test [1] (setting [2]), 82%; at DAPK3 (setting [2]), 24%; on EGFR(L858R,T790M) (setting [2]), 70%; on PIK3CA(H1047L) (setting [2]) it was 87%. In addition, the percent of control binding at 10 µM on PRP4 (setting [2]) was 85%; on CSF1R-autoinhibited (setting [2]), 99%; at DCAMKL3 (setting [2]), 44%; on PIK3CA(E542K) (setting [2]), 82%; at PRKG1 (setting [2]), 91%; on NDR2 (setting [2]), 86%.
For the compound `Cn1ncnc1[C@H]1c2n[nH]c(=O)c3cc(F)cc(c23)N[C@@H]1c1ccc(F)cc1` [Talazoparib], the percent of control binding at 10 µM at AAK1 (setting [3]) was 93%; on PIK3C2B (setting [3]), 67%; in [1] (setting [3]), 97%; at DAPK3 (setting [3]) it was 87%; on EGFR(L858R,T790M) (setting [3]) it was 100%; on PIK3CA(H1047L) (setting [3]), 100%. In addition, the percent of control binding at 10 µM on PRP4 (setting [3]) was 100%; on CSF1R-autoinhibited (setting [3]), 100%; at DCAMKL3 (setting [3]) it was 100%; on PIK3CA(E542K) (setting [3]), 100%; on PRKG1 (setting [3]), 57%; at NDR2 (setting [3]) it was 83%.
In the case of `NC(=O)c1cccc2cn(-c3ccc([C@@H]4CCCNC4)cc3)nc12` [Niraparib], the percent of control binding at 10 µM at AAK1 (setting [4]) is 83%; at PIK3C2B (setting [4]), 100%; in test [1] (setting [4]), 100%; on DAPK3 (setting [4]), 69%; at EGFR(L858R,T790M) (setting [4]), 100%; at PIK3CA(H1047L) (setting [4]), 100%. The percent of control binding at 10 µM worked out at 97% on PRP4 (setting [4]); 81% on CSF1R-autoinhibited (setting [4]); 85% on DCAMKL3 (setting [4]); 100% on PIK3CA(E542K) (setting [4]); 100% at PRKG1 (setting [4]); 77% at NDR2 (setting [4]).
As to `O=C(c1cc(Cc2n[nH]c(=O)c3ccccc23)ccc1F)N1CCN(C(=O)C2CC2)CC1` [Olaparib], the percent of control binding at 10 µM came out at 100% on AAK1 (setting [5]); 100% at PIK3C2B (setting [5]); 92% in test [1] (setting [5]); 93% on DAPK3 (setting [5]); 93% at EGFR(L858R,T790M) (setting [5]); 87% on PIK3CA(H1047L) (setting [5]). For the same compound, the percent of control binding at 10 µM on PRP4 (setting [5]) was determined as 82%; at CSF1R-autoinhibited (setting [5]) it was 95%; on DCAMKL3 (setting [5]) it was 88%; at PIK3CA(E542K) (setting [5]), 94%; on PRKG1 (setting [5]) it was 100%; at NDR2 (setting [5]), 97%.

The values are drawn from article PMC7026418, “The kinase polypharmacology landscape of clinical PARP inhibitors” (Scientific Reports, 2020).
